Laboratory results as given in paper PMC5725665, “Discovery of a Highly Selective Cell‐Active Inhibitor of the Histone Lysine Demethylases KDM2/7” (Angewandte Chemie (International Ed. in English), 2017).

Each molecule was assayed against T1, KDM2A (Homo sapiens, UniProt Q9Y2K7) (assay: biochemical). Conditions: inhibitor.
T1 construct: isolated enzyme
T1 sequence (Q9Y2K7 1-517 limits assumed): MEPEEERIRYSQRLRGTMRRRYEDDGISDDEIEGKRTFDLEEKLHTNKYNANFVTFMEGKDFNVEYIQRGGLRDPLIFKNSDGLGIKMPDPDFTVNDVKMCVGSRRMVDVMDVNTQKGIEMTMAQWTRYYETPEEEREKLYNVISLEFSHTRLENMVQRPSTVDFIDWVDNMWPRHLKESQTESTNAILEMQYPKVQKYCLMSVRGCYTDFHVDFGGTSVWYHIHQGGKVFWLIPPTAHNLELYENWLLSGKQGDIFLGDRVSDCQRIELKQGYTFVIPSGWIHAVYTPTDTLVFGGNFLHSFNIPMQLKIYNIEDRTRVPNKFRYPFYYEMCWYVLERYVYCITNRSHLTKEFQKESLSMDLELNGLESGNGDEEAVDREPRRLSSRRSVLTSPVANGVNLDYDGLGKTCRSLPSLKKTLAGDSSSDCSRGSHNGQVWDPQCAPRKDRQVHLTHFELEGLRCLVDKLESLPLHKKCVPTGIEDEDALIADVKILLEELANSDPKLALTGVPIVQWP
Design: RapidFire MS histone peptide demethylation assay
Experimental: [formula] Scheme 1 A) General synthetic strategy for racemic synthesis of KDM2A inhibitors. Reagents and conditions: i) Zn powder (10 equiv), NH4Cl (15 equiv), 5:1 acetone/H2O or H2, Pd/C (10 % w/w), EtOAc; ii) ArCHO (1.3 equiv), MgSO4 (5 equiv), PhMe or ArCHO (1.3 equiv), pyrrolidine (0.1 equiv), 3 Å sieves, CH2Cl2; iii) KO^tBu (1.1 equiv), PhMe, 0 °C; iv) R^3COCl (2–5 equiv), pyridine (2–5 equiv), CH2Cl2; v) metal‐catalysed cross‐coupling. B) Key structure–activity relationships. IC50 values were determined by RapidFire MS and confirmed by AlphaScreen. All compounds are racemic. C) Catalytic enantioselective synthesis. Reagents and conditions: i) CsOH⋅H2O (2.0 equiv), catalyst 14/16 (10 mol %), PhMe, −30 °C. Catalyst 14: 89 %, d.r. 10:1, e.r. 88:12; catalyst 16: 84 %, d.r. 7:1, e.r. 17:83; ii) CH3COCl (2.0 equiv), pyridine (2.0 equiv), CH2Cl2; iii) H2, Pd/C (10 % w/w), 88 % (2 steps); iv) K2CO3 (5 equiv), Br(CH2)7Br (4 equiv), acetone, reflux, 38 %; v) K2CO3 (5 equiv) pyrrolidine (4 equiv), CH3CN, 65 %; vi) PhN(SO2CF3)2 (1.1 equiv), DIPEA (2.0 equiv), CH2Cl2, 0 °C, 85 %; vii) 7‐pyrrolidine‐hept‐1‐yne (1.5 equiv), PdCl2(PPh3)2 (5 mol %), CuI (5 mol %), HN(^iPr)2, 75 °C, 79 %; viii) H2, Pd/C (10 % w/w), MeOH, 74 %. DIPEA=(^iPr)2NEt. A base‐mediated 5‐endo‐trig cyclization of a C‐2‐substituted aromatic imine afforded the racemic indoline core with two adjacent stereocenters. Subsequent acylation of the indoline ring system conferred stability towards oxidation and provided a handle for modulating polarity. Finally, metal‐catalysed cross‐coupling of the aryl bromide provided access to a variety of linkers between the indoline core and pyrrolidine capping group. In total, 45 racemic compounds were synthesized, and IC50 values for inhibition of KDM2A were determined using two orthogonal enzyme activity assays: AlphaScreen25 and RapidFire MS26 (see Section S3.1 in the Supporting Information for complete inhibition data). Key structure–activity relationships are summarized below (Scheme 1 B, compounds 2–12).

Point of comparison: `N#C[C@]1(c2ccccc2)c2ccccc2N[C@@H]1c1cncc(C#CCCCCCN2CCCC2)c1` (relative stereo) [compound 137, 137], “KDM2A RapidFire pIC50” value 5.884. Against it:
- N#CCC(=O)N1c2ccccc2[C@](C#N)(c2ccccc2)[C@H]1c1cncc(CCCCCCCN2CCCC2)c1 (relative stereo) [compound 139, 139] — higher, 6.368
- N#C[C@]1(c2ccccc2)c2ccccc2N[C@@H]1c1cncc(CCCCCCCN2CCCC2)c1 (relative stereo) [compound 142, 142] — higher, 6.708
- CC(=O)N1c2ccccc2[C@@](C#N)(c2ccccc2)[C@@H]1c1cncc(OCCCCCCCN2CCCC2)c1 [(S,S)-3] — higher, 6.401

Same assay, conditions: read-out: KDM2A RapidFire pIC50 (converted)

Point of comparison: `N#C[C@]1(c2ccccc2)c2ccccc2N(C(=O)c2ccccc2)[C@@H]1c1cccc(OCCCCCCCN2CCCC2)c1` (racemic) [compound 63, (2RS,3RS)-1-Benzoyl-3-phenyl-2-(3-((7-(pyrrolidin-1-yl)heptyl)oxy)phenyl)indoline-3-carbonitrile], IC50 2020 nM. Against it:
- CC(=O)N1c2ccccc2[C@](C#N)(c2ccccc2)[C@H]1c1cccc(OCCCCN2CCCC2)c1 (racemic) [compound 56, (2RS,3RS)-1-Acetyl-3-phenyl-2-(3-(4-(pyrrolidin-1-yl)butoxy)phenyl)indoline-3-carbonitrile] — the same, 2020 nM
- CC(=O)N1c2ccccc2[C@](C#N)(c2ccccc2)[C@H]1c1cccc(OCCCCCN2CCCC2)c1 (racemic) [compound 57, (2RS,3RS)-1-Acetyl-3-phenyl-2-(3-((5-(pyrrolidin-1-yl)pentyl)oxy)phenyl)indoline-3-carbonitrile] — 1.6-fold lower, 1250 nM
- CC(=O)N1c2ccccc2[C@](C#N)(c2ccccc2)[C@H]1c1cccc(OCCCCCCN2CCCC2)c1 (racemic) [compound 58, (2RS,3RS)-1-Acetyl-3-phenyl-2-(3-((6-(pyrrolidin-1-yl)hexyl)oxy)phenyl)indoline-3-carbonitrile] — 2-fold lower, 1030 nM
- CC(=O)N1c2ccccc2[C@](C#N)(c2ccccc2)[C@H]1c1cccc(OCCCCCCCN2CCCC2)c1 (racemic) [compound 59, (2RS,3RS)-1-Acetyl-3-phenyl-2-(3-((7-(pyrrolidin-1-yl)heptyl)oxy)phenyl)indoline-3-carbonitrile] — 2.3-fold lower, 893 nM
- CC(=O)N1c2ccccc2[C@](C#N)(c2ccccc2)[C@H]1c1cccc(OCCCCCCCCN2CCCC2)c1 (racemic) [compound 60, (2RS,3RS)-1-Acetyl-3-phenyl-2-(3-((8-(pyrrolidin-1-yl)octyl)oxy)phenyl)indoline-3-carbonitrile] — within 1.5-fold, 1380 nM
- CC(=O)N1c2ccccc2[C@](C#N)(c2ccccc2)[C@H]1c1cccc(OCCCCCCCCCN2CCCC2)c1 (racemic) [compound 62, (2RS,3RS)-1-Acetyl-3-phenyl-2-(3-((9-(pyrrolidin-1-yl)nonyl)oxy)phenyl)indoline-3-carbonitrile] — within 1.5-fold, 1510 nM
- N#C[C@]1(c2ccccc2)c2ccccc2N(C(=O)c2ccco2)[C@@H]1c1cccc(OCCCCCCCN2CCCC2)c1 (racemic) [compound 64, (2RS,3RS)-1-(Furan-2-carbonyl)-3-phenyl-2-(3-((7-(pyrrolidin-1-yl)heptyl)oxy)phenyl)indoline-3-carbonitrile] — 2.3-fold lower, 883 nM
- CC(C)CC(=O)N1c2ccccc2[C@](C#N)(c2ccccc2)[C@H]1c1cccc(OCCCCCCCN2CCCC2)c1 (racemic) [compound 65, (2RS,3RS)-1-(3-Methylbutanoyl)-3-phenyl-2-(3-((7-(pyrrolidin-1-yl)heptyl)oxy)phenyl)indoline-3-carbonitrile] — within 1.5-fold, 1350 nM
- N#C[C@]1(c2ccccc2)c2ccccc2N(C(=O)c2ccc(C(F)(F)F)cc2)[C@@H]1c1cccc(OCCCCCCCN2CCCC2)c1 (racemic) [compound 66, (2RS,3RS)-3-Phenyl-2-(3-((7-(pyrrolidin-1-yl)heptyl)oxy)phenyl)-1-(4-(trifluoromethyl)benzoyl)indoline-3-carbonitrile] — 1.5-fold lower, 1320 nM
- CC(=O)N1c2ccccc2[C@](C#N)(c2ccccc2)[C@H]1c1cccc(OCCCCCCCN2CCCCC2)c1 (racemic) [compound 69, (2RS,3RS)-1-Acetyl-3-phenyl-2-(3-((7-(piperidin-1-yl)heptyl)oxy)phenyl)indoline-3-carbonitrile] — 1.9-fold lower, 1070 nM
- CC(=O)N1c2ccccc2[C@](C#N)(c2ccccc2)[C@H]1c1cccc(OCCCCCCCN2CCOCC2)c1 (racemic) [compound 70, (2RS,3RS)-1-Acetyl-2-(3-((7-morpholinoheptyl)oxy)phenyl)-3-phenylindoline-3-carbonitrile] — 1.6-fold higher, 3260 nM
- CC(=O)N1c2ccccc2[C@](C#N)(c2ccccc2)[C@H]1c1cncc(/C=C\CCCCCN2CCCC2)c1 (racemic) [compound 152, (2RS,3RS)-1-Acetyl-3-phenyl-2-(5-((Z)-7-(pyrrolidin-1-yl)hept-1-en-1-yl)pyridin-3-yl)indoline-3-carbonitrile] — 2.4-fold lower, 838 nM

What follows are molecules tested against T2, JMJD2A (KDM4A) (Homo sapiens, UniProt O75164) (assay: biochemical). Conditions: read-out: KDM4A % Inhib. (18.75 uM).
T2 sequence (O75164 1-1064): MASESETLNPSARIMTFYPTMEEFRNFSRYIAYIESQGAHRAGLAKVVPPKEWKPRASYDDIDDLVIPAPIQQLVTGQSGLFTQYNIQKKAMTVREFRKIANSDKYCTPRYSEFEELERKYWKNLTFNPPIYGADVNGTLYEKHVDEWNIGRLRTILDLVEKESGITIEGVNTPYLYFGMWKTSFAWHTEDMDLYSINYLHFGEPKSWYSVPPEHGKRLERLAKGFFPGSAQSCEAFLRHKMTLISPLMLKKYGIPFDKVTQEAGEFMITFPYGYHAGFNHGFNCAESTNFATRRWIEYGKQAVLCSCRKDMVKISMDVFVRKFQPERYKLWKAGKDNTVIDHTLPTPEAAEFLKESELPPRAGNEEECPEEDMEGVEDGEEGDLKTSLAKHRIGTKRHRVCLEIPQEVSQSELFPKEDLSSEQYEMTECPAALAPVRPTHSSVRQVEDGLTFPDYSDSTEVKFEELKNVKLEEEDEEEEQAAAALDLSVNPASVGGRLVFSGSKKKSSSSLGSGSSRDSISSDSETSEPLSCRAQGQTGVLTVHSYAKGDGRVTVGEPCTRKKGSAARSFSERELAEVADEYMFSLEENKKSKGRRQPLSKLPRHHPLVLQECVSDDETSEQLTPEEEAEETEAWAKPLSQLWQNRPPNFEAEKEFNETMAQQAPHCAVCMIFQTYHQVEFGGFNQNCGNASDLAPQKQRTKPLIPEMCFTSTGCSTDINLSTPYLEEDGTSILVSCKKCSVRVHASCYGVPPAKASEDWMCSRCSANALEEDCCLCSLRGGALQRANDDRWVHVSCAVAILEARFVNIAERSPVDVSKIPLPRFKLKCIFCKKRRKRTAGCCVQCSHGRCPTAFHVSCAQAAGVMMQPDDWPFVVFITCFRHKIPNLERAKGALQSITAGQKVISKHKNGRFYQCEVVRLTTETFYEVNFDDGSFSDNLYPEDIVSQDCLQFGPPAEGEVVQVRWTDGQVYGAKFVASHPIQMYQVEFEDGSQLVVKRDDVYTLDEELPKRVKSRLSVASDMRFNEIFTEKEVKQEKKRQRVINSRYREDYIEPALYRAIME
Design: AlphaScreen histone demethylase activity assay

Point of comparison: `CC(=O)N1c2ccccc2C(C#N)(c2ccccc2)C1c1cc(C#CCCCCCN2CCCC2)co1` (centres unmarked) [compound 134, 134], inhibition at 18.75 µM 19.4%. Against it:
- CC(=O)N1c2ccccc2[C@](C#N)(c2ccccc2)[C@H]1c1cccc(/C=C/CCCCCN2CCCC2)c1 (racemic) [compound 9, 9] — lower, 3.4%
- CC(=O)N1c2ccccc2C(C#N)(c2ccccc2)C1c1ccc(C#CCCCCCN2CCCC2)o1 (centres unmarked) [compound 133, 133] — higher, 19.8%
